Laboratory results: patent US9597302B1, “Combination of dofetilide and mexiletine for the prevention and treatment of atrial fibrillation” (Heart Rhythm Solutions, Inc., priority 2015, dated 2017)
“Also recorded” adds a separate entry of the source.

Columns and labels:
[1] = tested on: arterially perfused rabbit atrial wedge preparations; assay: Atrial effective refractory period (ERP) and loss of excitation in arterially perfused rabbit atrial wedge preparations; details: for atrial preparations that lost excitation, drug alone: dofetilide (10 nM) or mexiletine (30 μM) used alone; for effect on atrial ERP, drug alone: each drug alone (FIG. 2)
Experimental: (§1) Rabbits (New Zealand White) of either sex, weighing 2.0-2.8 kg were injected with heparin (800 U/kg) via an ear vein and anesthetized by intramuscular injection of xylazine (5 mg/kg) and intravenous administration of ketamine HCl (30-35 mg/kg, i.v.). The chest was opened via a left thoracotomy, and the heart was excised and placed in a cardioplegic solution consisting of cold (4° C.) normal Tyrode's solution.
(§2) Surgical preparation of the rabbit right or left atrial wedge was essentially similar to that in Preclinical assessment of drug-induced proarrhythmias: role of the arterially perfused rabbit left ventricular wedge preparation,^18 herein incorporated by reference. Briefly, the atrial preparation was dissected from the rabbit heart and cannulated via a coronary artery branch, either from the right coronary artery (the right atrial wedge) or the left coronary artery (the left atrial wedge), and perfused with a cardioplegic solution. Similarly, the left ventricular wedge preparation was dissected from the rabbit heart and arterially cannulated via a branch of left coronary artery. The atrial or ventricular wedge preparation was then placed in a small tissue bath and arterially perfused with Tyrode's solution containing 4.0 mM K^+ buffered with 95% O2 and 5% CO2 at a temperature of 35.7±0.1° C. The preparations were paced at basic cycle lengths (BCL) of 300, 500, 1000 and 2000 ms.
Atrial effective refractory period (ERP) was measured by introducing an extrastimulus (S2) repeatedly every 10 pulses (S1) at two folds of the pacing threshold. […] In the preparations that lost excitation intermittently after drug interventions, the ERP was then considered to be equal to the S1-S1 interval.

[2] = tested on: arterially-perfused rabbit atrial wedge preparations; assay: Induction of atrial fibrillation by programming stimulation in arterially-perfused rabbit atrial wedge preparations; details: for suppression of induction of atrial fibrillation: programming stimulation, concentrations of Table 1
Experimental: as §1, §2
Atrial fibrillation was induced by programming stimulation using single or double extrastimuli (S2 and S3). Basic cycle lengths (S1 and S1) of 1000 and 500 ms were used for induction of atrial fibrillation.

[3] = tested on: arterially-perfused rabbit left ventricular wedge preparations; assay: Dofetilide-induced EAD, R-on-T extrasystoles and TdP in arterially-perfused rabbit left ventricular wedge preparations
Experimental: as §1, §2
Two extracellular silver/silver chloride electrodes were placed on the endocardial or epicardial surfaces to record bipolar atrial electrograms (EGM). A transmural ECG was recorded in the ventricular wedge preparation using two extracellular silver/silver chloride electrodes placed in the bath 0.5 to 1.5 cm from the epicardial and endocardial surfaces of the preparation (Epi: “+” pole). Transmembrane action potential was recorded from the endocardium or epicardium using the floating glass microelectrodes. Atrial action potential duration at 90% repolarization (APD90) was used for data analysis.
Early afterdepolarization (EAD), EAD-dependent R-on-T extrasystoles and torsade de pointes (TdP) were induced by dofetilide in the rabbit left ventricular wedges which were paced at a BCL of 2000 ms and perfused with Tyrode's solution containing 3 mM K^+, which is equivalent to hypokalemia in humans. Lower K^+ potentiated the effect of dofetilide to induced EAD, R-on-T and TdP. The K^+ concentration in Tyrode's solution remained the same when the effect of mexiletine on dofetilide-induced EAD, R-on-T and TdP was examined.

[4] = literature refs 19-21; cited from earlier work
[5] = tested on: arterially perfused rabbit atrial wedge preparations; assay: Atrial action potential duration (APD90) in arterially perfused rabbit atrial wedge preparations; details: dofetilide 3 nM and 10 nM; BCL 1000 ms or 500 ms (FIG. 1)
Experimental: as §1
Surgical preparation of the rabbit right or left atrial wedge was essentially similar to that in Preclinical assessment of drug-induced proarrhythmias: role of the arterially perfused rabbit left ventricular wedge preparation,^18 herein incorporated by reference. […]
Two extracellular silver/silver chloride electrodes were placed on the endocardial or epicardial surfaces to record bipolar atrial electrograms (EGM). A transmural ECG was recorded in the ventricular wedge preparation using two extracellular silver/silver chloride electrodes placed in the bath 0.5 to 1.5 cm from the epicardial and endocardial surfaces of the preparation (Epi: “+” pole). Transmembrane action potential was recorded from the endocardium or epicardium using the floating glass microelectrodes. […]

[6] = dofetilide 10 nM, BCL 2000 ms, 3 mM K+

Row | reversibility of the effect on dofetilide-induced EAD, R-on-T and TdP ([3]; after removal of mexiletine EAD, R-on-T reoccurred) | effect on EAD, R-on-T and TdP induced by 10 nM dofetilide ([3]; mexiletine 10 μM, low (3 mM) K+ (FIG. 6)) | Structure (SMILES) | atrial preparations that lost excitation, drug alone [1] | effect on atrial ERP, drug alone [1] | Induced Atrial Fibrillation (incidence) ([2]; mexiletine 10 μM) | suppression of induction of atrial fibrillation [2] | therapeutical plasma concentration in humans [4] [µM] | effect on atrial APD90 [5] | Induced Atrial Fibrillation (incidence) ([2]; dofetilide 3 nM) | effect on atrial fibrillation readily induced by single stimuli ([2]; one atrial wedge preparation, dofetilide alone 10 nM and 30 nM (FIG. 5)) | EAD (incidence) [3, 6] | R-on-T (incidence) [3, 6] | TdP (incidence) [3, 6]
1 | washable | effectively abolished | Cc1cccc(C)c1OCC(C)N (racemic) [mexiletine, (RS)-1-(2,6-dimethylphenoxy)propan-2-amine] | none | mildly to moderately prolonged | 4 of 4 preparations | not | ~10 | – | – | – | – | – | –
2 | – | – | CN(CCOc1ccc(NS(C)(=O)=O)cc1)CCc1ccc(NS(C)(=O)=O)cc1 [dofetilide, N-[4-(2-{[2-(4-methanesulfonamidophenoxy)ethyl](methyl)amino}ethyl)phenyl] methanesulfonamide] | none | mildly to moderately prolonged | – | partially suppressed | ~0.003 | significantly increased | 3 of 6 preparations | failed to suppress induction of atrial fibrillation and premature beats; also recorded: reduced only duration and incidences of atrial fibrillation | 7 of 7 | 5 of 7 | 1 of 7
